Columns and labels:
Assay in all cases: relative viability (nuclei count vs DMSO), 5 days (fraction); higher = more cells survive
Midostaurin + Bortezomib = compound: CO[C@@H]1[C@H](N(C)C(=O)c2ccccc2)C[C@H]2O[C@]1(C)n1c3ccccc3c3c4c(c5c6ccccc6n2c5c31)C(=O)NC4 [Midostaurin] + CC(C)C[C@H](NC(=O)[C@H](Cc1ccccc1)NC(=O)c1cnccn1)B(O)O [Bortezomib] (partner 0.002 µM)
Procedure, shortened: (§1)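 Relative viability is defined as nuclei in treated wells over nuclei in vehicle wells. Duplicate plates were run and medians reported. Lung cancer cell lines in 1536-well plates were dosed by pin tool one day after seeding, with one drug or with a fixed anchor-drug dose plus five library-drug doses (not always all listed) in √10 steps, and nuclei were counted after 5 days.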

Midostaurin + Olaparib = compound: CO[C@@H]1[C@H](N(C)C(=O)c2ccccc2)C[C@H]2O[C@]1(C)n1c3ccccc3c3c4c(c5c6ccccc6n2c5c31)C(=O)NC4 [Midostaurin] + O=C(c1cc(Cc2n[nH]c(=O)c3ccccc23)ccc1F)N1CCN(C(=O)C2CC2)CC1 [Olaparib] (partner 8 µM)
Procedure, shortened: as §1

[1] = compound: COc1cc(-c2nn([C@H]3CC[C@H](N4CCN(C(C)=O)CC4)CC3)c3ncnc(N)c23)ccc1NC(=O)c1cc2ccccc2n1C + CC1(C)CCC(c2ccc(Cl)cc2)=C(CN2CCN(c3ccc(C(=O)NS(=O)(=O)c4ccc(N[C@H](CCN5CCOCC5)CSc5ccccc5)c(S(=O)(=O)C(F)(F)F)c4)cc3)CC2)C1 [Navitoclax] (partner 0.5 µM)
Procedure, shortened: as §1

[2] = compound: COc1cc(-c2nn([C@H]3CC[C@H](N4CCN(C(C)=O)CC4)CC3)c3ncnc(N)c23)ccc1NC(=O)c1cc2ccccc2n1C + C[C@@H](Oc1cc(-c2cnn(C3CCNCC3)c2)cnc1N)c1c(Cl)ccc(F)c1Cl [Crizotinib] (partner 1 µM)
Procedure, shortened: as §1

[3] = compound: COc1cc(-c2nn([C@H]3CC[C@H](N4CCN(C(C)=O)CC4)CC3)c3ncnc(N)c23)ccc1NC(=O)c1cc2ccccc2n1C + Cc1nc(Nc2ncc(C(=O)Nc3c(C)cccc3Cl)s2)cc(N2CCN(CCO)CC2)n1 [Dasatinib] (partner 0.075 µM)
Procedure, shortened: as §1

Q: UMC-11 was tested. Which relative viability (Midostaurin + Bortezomib; first compound 0.01 µM) did it give?
A: Its relative viability is 0.734.

Q: And the relative viability (Midostaurin + Bortezomib; first compound 0.03162 µM)?
A: The relative viability was 0.591.

Q: What about the relative viability (Midostaurin + Bortezomib; first compound 0.1 µM) of the same cell line?
A: Its relative viability is 0.508.

Q: What about the relative viability (Midostaurin + Bortezomib; first compound 0.3162 µM) of the same cell line?
A: The relative viability was 0.34.

Q: What about the relative viability (Midostaurin + Olaparib; first compound 0.01 µM) of the same cell line?
A: Its relative viability is 0.354.

Q: And the relative viability (Midostaurin + Olaparib; first compound 0.03162 µM)?
A: Its relative viability is 0.387.

Q: And the relative viability (Midostaurin + Olaparib; first compound 0.1 µM)?
A: Its relative viability is 0.303.

Q: And the relative viability (Midostaurin + Olaparib; first compound 0.3162 µM)?
A: The relative viability was 0.207.

Q: What about the relative viability ([1]; first compound 0.0128 µM) of the same cell line?
A: The relative viability was 0.315.

Q: And the relative viability ([1]; first compound 0.04048 µM)?
A: Its relative viability is 0.323.

Q: And the relative viability ([1]; first compound 0.128 µM)?
A: The relative viability was 0.28.

Q: What about the relative viability ([1]; first compound 1.28 µM) of the same cell line?
A: The relative viability was 0.297.

Q: And the relative viability ([2]; first compound 0.0128 µM)?
A: The relative viability was 0.638.

Q: And the relative viability ([2]; first compound 0.04048 µM)?
A: The relative viability was 0.627.

Q: And the relative viability ([2]; first compound 0.128 µM)?
A: Its relative viability is 0.64.

Q: And the relative viability ([2]; first compound 1.28 µM)?
A: The relative viability was 0.479.

Q: And the relative viability ([3]; first compound 0.0128 µM)?
A: The relative viability was 0.49.

Q: And the relative viability ([3]; first compound 0.04048 µM)?
A: Its relative viability is 0.468.

Q: What about the relative viability ([3]; first compound 0.128 µM) of the same cell line?
A: The relative viability was 0.42.

Q: And the relative viability ([3]; first compound 1.28 µM)?
A: The relative viability was 0.446.

Source: the supplement of paper PMC10307832
